Reference: PubChem BioAssay (NCI)
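The compound was tested at five concentrations on cells cultured in 96-well plates, with a 48-hour exposure period. GI50 is the concentration that inhibits growth by half. TGI: concentration producing complete growth inhibition.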

Key:
Test in all cases: NCI anticancer screen, dose series, 48 h
OVCAR-3 ovarian = system: OVCAR-3 ovarian
HCT-116 colon = system: HCT-116 colon
MOLT-4 leukemia = system: MOLT-4 leukemia
SN12C renal = system: SN12C renal
MDA-MB-231 breast = system: MDA-MB-231 breast
HS 578T breast = system: HS 578T breast
SNB-19 CNS = system: SNB-19 CNS
OVCAR-5 ovarian = system: OVCAR-5 ovarian
NCI-H23 lung = system: NCI-H23 lung
CCRF-CEM leukemia = system: CCRF-CEM leukemia
NCI-H226 lung = system: NCI-H226 lung
DU-145 prostate = system: DU-145 prostate
HOP-62 NSCLC = system: HOP-62 NSCLC
SNB-75 CNS = system: SNB-75 CNS
SF-268 CNS = system: SF-268 CNS
HL-60(TB) leukemia = system: HL-60(TB) leukemia
MDA-MB-435 = system: MDA-MB-435
UACC-257 melanoma = system: UACC-257 melanoma
RPMI-8226 leukemia = system: RPMI-8226 leukemia
HT29 colon = system: HT29 colon
SK-MEL-2 melanoma = system: SK-MEL-2 melanoma
OVCAR-4 ovarian = system: OVCAR-4 ovarian
RXF 393 renal = system: RXF 393 renal
SF-295 CNS = system: SF-295 CNS
ACHN renal = system: ACHN renal
NCI/ADR-RES ovarian = system: NCI/ADR-RES ovarian
M14 melanoma = system: M14 melanoma
SK-MEL-28 melanoma = system: SK-MEL-28 melanoma
UO-31 renal = system: UO-31 renal
LOX IMVI melanoma = system: LOX IMVI melanoma
T-47D breast = system: T-47D breast
PC-3 prostate = system: PC-3 prostate
K-562 leukemia = system: K-562 leukemia
NCI-H460 lung = system: NCI-H460 lung
KM12 colon = system: KM12 colon
SF-539 CNS = system: SF-539 CNS
HCT-15 colon = system: HCT-15 colon
HCC-2998 colon = system: HCC-2998 colon
A498 renal = system: A498 renal
OVCAR-8 ovarian = system: OVCAR-8 ovarian
U251 CNS = system: U251 CNS
SW-620 colon = system: SW-620 colon
BT-549 breast = system: BT-549 breast
HOP-92 NSCLC = system: HOP-92 NSCLC
IGROV1 ovarian = system: IGROV1 ovarian
NCI-H522 lung = system: NCI-H522 lung
786-0 renal = system: 786-0 renal
EKVX NSCLC = system: EKVX NSCLC
COLO 205 colon = system: COLO 205 colon
A549 NSCLC = system: A549 NSCLC
SK-OV-3 ovarian = system: SK-OV-3 ovarian
CAKI-1 renal = system: CAKI-1 renal
TK-10 renal = system: TK-10 renal
SK-MEL-5 melanoma = system: SK-MEL-5 melanoma
MCF7 breast = system: MCF7 breast
UACC-62 melanoma = system: UACC-62 melanoma

Cc1ccc2c(c1)n([O-])c(C(F)(F)F)c(C(=O)c1ccco1)[n+]2=O
GI50 (OVCAR-3 ovarian): 573 nM
TGI (OVCAR-3 ovarian): 1750 nM
GI50 (HCT-116 colon): 994 nM
TGI (HCT-116 colon): 12700 nM
GI50 (MOLT-4 leukemia): 14600 nM
TGI (MOLT-4 leukemia): 50000 nM
GI50 (SN12C renal): 833 nM
TGI (SN12C renal): 2500 nM
GI50 (MDA-MB-231 breast): 929 nM
TGI (MDA-MB-231 breast): 2650 nM
GI50 (HS 578T breast): 1200 nM
TGI (HS 578T breast): 7730 nM
GI50 (SNB-19 CNS): 1470 nM
TGI (SNB-19 CNS): 6820 nM
GI50 (OVCAR-5 ovarian): 1720 nM
TGI (OVCAR-5 ovarian): 9030 nM
GI50 (NCI-H23 lung): 433 nM
TGI (NCI-H23 lung): 1520 nM
GI50 (CCRF-CEM leukemia): 74.3 nM
TGI (CCRF-CEM leukemia): 859 nM
GI50 (NCI-H226 lung): 755 nM
TGI (NCI-H226 lung): 2090 nM
GI50 (DU-145 prostate): 564 nM
TGI (DU-145 prostate): 1330 nM
GI50 (HOP-62 NSCLC): 996 nM
TGI (HOP-62 NSCLC): 3850 nM
GI50 (SNB-75 CNS): 1400 nM
TGI (SNB-75 CNS): 6070 nM
GI50 (SF-268 CNS): 420 nM
TGI (SF-268 CNS): 2480 nM
GI50 (HL-60(TB) leukemia): 1090 nM
TGI (HL-60(TB) leukemia): 21800 nM
GI50 (MDA-MB-435): 744 nM
TGI (MDA-MB-435): 2650 nM
GI50 (UACC-257 melanoma): 924 nM
TGI (UACC-257 melanoma): 3120 nM
GI50 (RPMI-8226 leukemia): 357 nM
TGI (RPMI-8226 leukemia): 2690 nM
GI50 (HT29 colon): 2070 nM
TGI (HT29 colon): 20700 nM
GI50 (SK-MEL-2 melanoma): 4400 nM
TGI (SK-MEL-2 melanoma): 34700 nM
GI50 (OVCAR-4 ovarian): 627 nM
TGI (OVCAR-4 ovarian): 1890 nM
GI50 (RXF 393 renal): 622 nM
TGI (RXF 393 renal): 2910 nM
GI50 (SF-295 CNS): 457 nM
TGI (SF-295 CNS): 1970 nM
GI50 (ACHN renal): 217 nM
TGI (ACHN renal): 1000 nM
GI50 (NCI/ADR-RES ovarian): 740 nM
TGI (NCI/ADR-RES ovarian): 3550 nM
GI50 (M14 melanoma): 1300 nM
TGI (M14 melanoma): 6550 nM
GI50 (SK-MEL-28 melanoma): 4160 nM
TGI (SK-MEL-28 melanoma): 23600 nM
GI50 (UO-31 renal): 319 nM
TGI (UO-31 renal): 1810 nM
GI50 (LOX IMVI melanoma): 176 nM
TGI (LOX IMVI melanoma): 930 nM
GI50 (T-47D breast): 472 nM
TGI (T-47D breast): 4180 nM
GI50 (PC-3 prostate): 306 nM
TGI (PC-3 prostate): 4820 nM
GI50 (K-562 leukemia): 1100 nM
TGI (K-562 leukemia): 34500 nM
GI50 (NCI-H460 lung): 262 nM
TGI (NCI-H460 lung): 1520 nM
GI50 (KM12 colon): 667 nM
TGI (KM12 colon): 2490 nM
GI50 (SF-539 CNS): 918 nM
TGI (SF-539 CNS): 2670 nM
GI50 (HCT-15 colon): 562 nM
TGI (HCT-15 colon): 7620 nM
GI50 (HCC-2998 colon): 716 nM
TGI (HCC-2998 colon): 1670 nM
GI50 (A498 renal): 1210 nM
TGI (A498 renal): 3210 nM
GI50 (OVCAR-8 ovarian): 684 nM
TGI (OVCAR-8 ovarian): 2640 nM
GI50 (U251 CNS): 632 nM
TGI (U251 CNS): 5150 nM
GI50 (SW-620 colon): 966 nM
TGI (SW-620 colon): 8150 nM
GI50 (BT-549 breast): 627 nM
TGI (BT-549 breast): 4210 nM
GI50 (HOP-92 NSCLC): 55.6 nM
TGI (HOP-92 NSCLC): 445 nM
GI50 (IGROV1 ovarian): 205 nM
TGI (IGROV1 ovarian): 9000 nM
GI50 (NCI-H522 lung): 1420 nM
TGI (NCI-H522 lung): 12500 nM
GI50 (786-0 renal): 1220 nM
TGI (786-0 renal): 6590 nM
GI50 (EKVX NSCLC): 719 nM
TGI (EKVX NSCLC): 2880 nM
GI50 (COLO 205 colon): 816 nM
TGI (COLO 205 colon): 2060 nM
GI50 (A549 NSCLC): 965 nM
TGI (A549 NSCLC): 3350 nM
GI50 (SK-OV-3 ovarian): 1590 nM
TGI (SK-OV-3 ovarian): 7390 nM
GI50 (CAKI-1 renal): 84.5 nM
TGI (CAKI-1 renal): 448 nM
GI50 (TK-10 renal): 1940 nM
TGI (TK-10 renal): 8740 nM
GI50 (SK-MEL-5 melanoma): 556 nM
TGI (SK-MEL-5 melanoma): 1300 nM
GI50 (MCF7 breast): 762 nM
TGI (MCF7 breast): 4900 nM
GI50 (UACC-62 melanoma): 723 nM
TGI (UACC-62 melanoma): 1610 nM
